Results taken from patent US9125913B2, “Bcl-2-selective apoptosis-inducing agents for the treatment of cancer and immune diseases” (AbbVie Inc., priority 2008, dated 2015).

System: GST-Bcl-2
Assay: TR-FRET binding assay, Bcl-2
Settings: TR-FRET Ki values
Description: Tb-anti-GST antibody was purchased from Invitrogen (Catalog No. PV4216).
Representative compounds were serially diluted in dimethyl sulfoxide (DMSO) starting at 50 μM (2× starting concentration; 10% DMSO) and 10 μL were transferred into a 384-well plate.
The samples were then mixed on a shaker for 1 minute and incubated for an additional 3 hours at room temperature. For each assay, the probe/antibody and protein/probe/antibody were included on each assay plate as negative and positive controls, respectively. Fluorescence was measured on the Envision (Perkin Elmer) using a 340/35 nm excitation filter and 520/525 (F-Bak peptide) and 495/510 nm (Tb-labeled anti-Histidine antibody) emission filters.
The inhibition constant (Ki) is the dissociation constant of an enzyme-inhibitor complex or a protein/small molecule complex, wherein the small molecule is inhibiting binding of one protein to another protein or peptide. […] Inhibition constants were determined using Wang's equation (Wang Z-X., An Exact Mathematical Expression For Describing Competitive Binding Of Two Different Ligands To A Protein Molecule. FEBS Lett. 1995, 360:111-4).

Compound	Binding selectivity ratio (Bcl-XL Ki/Bcl-2 Ki)
CN(C)C1CCC(Nc2ccc(S(=O)(=O)NC(=O)c3ccc(N4CCN(CC5=C(c6ccc(Cl)cc6)CC(C)(C)CC5)CC4)cc3Oc3cccc4[nH]ccc34)cc2[N+](=O)[O-])CC1 (stereo not drawn) [EXAMPLE 202, 4-(4-{[2-(4-chlorophenyl)-4,4-dimethylcyclohex-1-en-1-yl]methyl}piperazin-1-yl)-N-[(4-{[4-(dimethylamino)cyclohexyl]amino}-3-nitrophenyl)sulfonyl]-2-(1H-indol-4-yloxy)benzamide]	97.1
CCN(CC)C1CCC(Nc2ccc(S(=O)(=O)NC(=O)c3ccc(N4CCN(CC5=C(c6ccc(Cl)cc6)CC(C)(C)CC5)CC4)cc3Oc3cccc4[nH]ccc34)cc2[N+](=O)[O-])CC1 (stereo not drawn) [EXAMPLE 203, 4-(4-{[2-(4-chlorophenyl)-4,4-dimethylcyclohex-1-en-1-yl]methyl}piperazin-1-yl)-N-[(4-{[4-(diethylamino)cyclohexyl]amino}-3-nitrophenyl)sulfonyl]-2-(1H-indol-4-yloxy)benzamide]	139.5
CC1(C)CCC(CN2CCN(c3ccc(C(=O)NS(=O)(=O)c4ccc(N[C@H]5CC[C@H](N6CCOCC6)CC5)c([N+](=O)[O-])c4)c(Oc4cccc5[nH]ccc45)c3)CC2)=C(c2ccc(Cl)cc2)C1 [EXAMPLE 204, Trans-4-(4-{[2-(4-chlorophenyl)-4,4-dimethylcyclohex-1-en-1-yl]methyl}piperazin-1-yl)-2-(1H-indol-4-yloxy)-N-({4-[(4-morpholin-4-ylcyclohexyl)amino]-3-nitrophenyl}sulfonyl)benzamide]	291.3
CN(C)CCOc1cccc(-c2ccc(Cl)cc2)c1CN1CCN(c2ccc(C(=O)NS(=O)(=O)c3ccc(NC4CCN(C)CC4)c([N+](=O)[O-])c3)c(Oc3cccc4[nH]ccc34)c2)CC1 [EXAMPLE 205, 4-[4-({4′-chloro-3-[2-(dimethylamino)ethoxy]-1,1′-biphenyl-2-yl}methyl)piperazin-1-yl]-2-(1H-indol-4-yloxy)-N-({4-[(1-methylpiperidin-4-yl)amino]-3-nitrophenyl}sulfonyl)benzamide]	658.6
CC(c1ccccc1-c1ccc(Cl)cc1)N1CCN(c2ccc(C(=O)NS(=O)(=O)c3ccc(NC4CCN(C)CC4)c([N+](=O)[O-])c3)c(Oc3cccc4[nH]ccc34)c2)CC1 (stereo not drawn) [EXAMPLE 206, 4-{4-[1-(4′-chloro-1,1′-biphenyl-2-yl)ethyl]piperazin-1-yl}-2-(1H-indol-4-yloxy)-N-({4-[(1-methylpiperidin-4-yl)amino]-3-nitrophenyl}sulfonyl)benzamide]	>7916.4
CN(C)C1(CNc2ccc(S(=O)(=O)NC(=O)c3ccc(N4CCN(CC5=C(c6ccc(Cl)cc6)CC(C)(C)CC5)CC4)cc3Oc3ccc4[nH]ccc4c3)cc2[N+](=O)[O-])CCOCC1 [EXAMPLE 207, 4-(4-{[2-(4-chlorophenyl)-4,4-dimethylcyclohex-1-en-1-yl]methyl}piperazin-1-yl)-N-{[4-({[4-(dimethylamino)tetrahydro-2H-pyran-4-yl]methyl}amino)-3-nitrophenyl]sulfonyl}-2-(1H-indol-5-yloxy)benzamide]	>3021.3
CC1(C)CCC(CN2CCN(c3ccc(C(=O)NS(=O)(=O)c4ccc(NC5CCCCC5N)c([N+](=O)[O-])c4)c(Oc4ccc5[nH]ccc5c4)c3)CC2)=C(c2ccc(Cl)cc2)C1 (stereo not drawn) [EXAMPLE 208, N-({4-[(2-aminocyclohexyl)amino]-3-nitrophenyl}sulfonyl)-4-(4-{[2-(4-chlorophenyl)-4,4-dimethylcyclohex-1-en-1-yl]methyl}piperazin-1-yl)-2-(1H-indol-5-yloxy)benzamide]	>1120.6
CN(C)CC#Cc1ccc(-c2ccc(Cl)cc2)c(CN2CCN(c3ccc(C(=O)NS(=O)(=O)c4ccc(NCC5CCOCC5)c([N+](=O)[O-])c4)c(Oc4cccc5[nH]ccc45)c3)CC2)c1 [EXAMPLE 209, 4-[4-({4′-chloro-4-[3-(dimethylamino)prop-1-ynyl]-1,1′-biphenyl-2-yl}methyl)piperazin-1-yl]-2-(1H-indol-4-yloxy)-N-({3-nitro-4-[(tetrahydro-2H-pyran-4-ylmethyl)amino]phenyl}sulfonyl)benzamide]	>2476.0
CC1(C)CCC(CN2CCN(c3ccc(C(=O)NS(=O)(=O)c4ccc(NC5CCN(CCCC(F)(F)F)CC5)c([N+](=O)[O-])c4)c(Oc4cccc5[nH]ccc45)c3)CC2)=C(c2ccc(Cl)cc2)C1 [EXAMPLE 210, 4-(4-{[2-(4-chlorophenyl)-4,4-dimethylcyclohex-1-en-1-yl]methyl}piperazin-1-yl)-2-(1H-indol-4-yloxy)-N-[(3-nitro-4-{[1-(4,4,4-trifluorobutyl)piperidin-4-yl]amino}phenyl)sulfonyl]benzamide]	>1057.6
CN1CCC(O)(CCNc2ccc(S(=O)(=O)NC(=O)c3ccc(N4CCN(CC5=C(c6ccc(Cl)cc6)CC(C)(C)CC5)CC4)cc3Oc3ccc4[nH]ccc4c3)cc2[N+](=O)[O-])CC1 [EXAMPLE 211, 4-(4-{[2-(4-chlorophenyl)-4,4-dimethylcyclohex-1-en-1-yl]methyl}piperazin-1-yl)-N-[(4-{[2-(4-hydroxy-1-methylpiperidin-4-yl)ethyl]amino}-3-nitrophenyl)sulfonyl]-2-(1H-indol-5-yloxy)benzamide]	651.1
CC1(C)CCC(CN2CCN(c3ccc(C(=O)NS(=O)(=O)c4ccc(NC5CCN(c6nccs6)CC5)c([N+](=O)[O-])c4)c(Oc4ccc5[nH]ccc5c4)c3)CC2)=C(c2ccc(Cl)cc2)C1 [EXAMPLE 212, 4-(4-{[2-(4-chlorophenyl)-4,4-dimethylcyclohex-1-en-1-yl]methyl}piperazin-1-yl)-2-(1H-indol-5-yloxy)-N-[(3-nitro-4-{[1-(1,3-thiazol-2-yl)piperidin-4-yl]amino}phenyl)sulfonyl]benzamide]	>895.1
O=C(NS(=O)(=O)c1ccc(NCC2CCOCC2)c([N+](=O)[O-])c1)c1ccc(N2CCN(Cc3cc(OCCO)ccc3-c3ccc(Cl)cc3)CC2)cc1Oc1cccc2[nH]ccc12 [EXAMPLE 213, 4-(4-{[4′-chloro-4-(2-hydroxyethoxy)-1,1′-biphenyl-2-yl]methyl}piperazin-1-yl)-2-(1H-indol-4-yloxy)-N-({3-nitro-4-[(tetrahydro-2H-pyran-4-ylmethyl)amino]phenyl}sulfonyl)benzamide]	>66000
CC1(C)CCC(CN2CCN(c3ccc(C(=O)NS(=O)(=O)c4ccc(NC5CCN(CC6CC6)CC5)c([N+](=O)[O-])c4)c(Oc4ccc5[nH]ccc5c4)c3)CC2)=C(c2ccc(Cl)cc2)C1 [EXAMPLE 214, 4-(4-{[2-(4-chlorophenyl)-4,4-dimethylcyclohex-1-en-1-yl]methyl}piperazin-1-yl)-N-[(4-{[1-(cyclopropylmethyl)piperidin-4-yl]amino}-3-nitrophenyl)sulfonyl]-2-(1H-indol-5-yloxy)benzamide]	776.6
CN1CCN(Nc2ccc(S(=O)(=O)NC(=O)c3ccc(N4CCN(CC5=C(c6ccc(Cl)cc6)CC(C)(C)CC5)CC4)cc3Oc3cccc4[nH]ccc34)cc2S(=O)(=O)C(F)(F)F)CC1 [EXAMPLE 215, 4-(4-{[2-(4-chlorophenyl)-4,4-dimethylcyclohex-1-en-1-yl]methyl}piperazin-1-yl)-2-(1H-indol-4-yloxy)-N-({4-[(4-methylpiperazin-1-yl)amino]-3-[(trifluoromethyl)sulfonyl]phenyl}sulfonyl)benzamide]	120.8
CC1(C)CCC(CN2CCN(c3ccc(C(=O)NS(=O)(=O)c4ccc(NC5CCN(CCCC(F)(F)F)CC5)c([N+](=O)[O-])c4)c(Oc4ccc5[nH]ccc5c4)c3)CC2)=C(c2ccc(Cl)cc2)C1 [EXAMPLE 216, 4-(4-{[2-(4-chlorophenyl)-4,4-dimethylcyclohex-1-en-1-yl]methyl}piperazin-1-yl)-2-(1H-indol-5-yloxy)-N-[(3-nitro-4-{[1-(4,4,4-trifluorobutyl)piperidin-4-yl]amino}phenyl)sulfonyl]benzamide]	>1073.2
CC(c1ccccc1-c1ccc(Cl)cc1)N1CCN(c2ccc(C(=O)NS(=O)(=O)c3ccc(NN4CCN(C)CC4)c([N+](=O)[O-])c3)c(Oc3cccc4[nH]ccc34)c2)CC1 (stereo not drawn) [EXAMPLE 217, 4-{4-[1-(4′-chloro-1,1′-biphenyl-2-yl)ethyl]piperazin-1-yl}-2-(1H-indol-4-yloxy)-N-({4-[(4-methylpiperazin-1-yl)amino]-3-nitrophenyl}sulfonyl)benzamide]	171.1
CN1CCC(Nc2ccc(S(=O)(=O)NC(=O)c3ccc(N4CCN(CC5=C(c6ccc(Cl)cc6)CC(C)(C)CC5)C(CO)C4)cc3Oc3ccc4[nH]ccc4c3)cc2[N+](=O)[O-])CC1 (stereo not drawn) [EXAMPLE 218, 4-[4-{[2-(4-chlorophenyl)-4,4-dimethylcyclohex-1-en-1-yl]methyl}-3-(hydroxymethyl)piperazin-1-yl]-2-(1H-indol-5-yloxy)-N-({4-[(1-methylpiperidin-4-yl)amino]-3-nitrophenyl}sulfonyl)benzamide]	738.2
CC1(C)CCC(CN2CCN(c3ccc(C(=O)NS(=O)(=O)c4ccc(NC5CCN(C6CCOCC6)CC5)c([N+](=O)[O-])c4)c(Oc4ccc5[nH]ccc5c4)c3)CC2CO)=C(c2ccc(Cl)cc2)C1 (stereo not drawn) [EXAMPLE 219, 4-[4-{[2-(4-chlorophenyl)-4,4-dimethylcyclohex-1-en-1-yl]methyl}-3-(hydroxymethyl)piperazin-1-yl]-2-(1H-indol-5-yloxy)-N-({3-nitro-4-[(1-tetrahydro-2H-pyran-4-ylpiperidin-4-yl)amino]phenyl}sulfonyl)benzamide]	126.8
